# Target: PDE4D3 (Homo sapiens, UniProt Q08499)
# Sequence (Q08499 1-673 isoform Q08499-2): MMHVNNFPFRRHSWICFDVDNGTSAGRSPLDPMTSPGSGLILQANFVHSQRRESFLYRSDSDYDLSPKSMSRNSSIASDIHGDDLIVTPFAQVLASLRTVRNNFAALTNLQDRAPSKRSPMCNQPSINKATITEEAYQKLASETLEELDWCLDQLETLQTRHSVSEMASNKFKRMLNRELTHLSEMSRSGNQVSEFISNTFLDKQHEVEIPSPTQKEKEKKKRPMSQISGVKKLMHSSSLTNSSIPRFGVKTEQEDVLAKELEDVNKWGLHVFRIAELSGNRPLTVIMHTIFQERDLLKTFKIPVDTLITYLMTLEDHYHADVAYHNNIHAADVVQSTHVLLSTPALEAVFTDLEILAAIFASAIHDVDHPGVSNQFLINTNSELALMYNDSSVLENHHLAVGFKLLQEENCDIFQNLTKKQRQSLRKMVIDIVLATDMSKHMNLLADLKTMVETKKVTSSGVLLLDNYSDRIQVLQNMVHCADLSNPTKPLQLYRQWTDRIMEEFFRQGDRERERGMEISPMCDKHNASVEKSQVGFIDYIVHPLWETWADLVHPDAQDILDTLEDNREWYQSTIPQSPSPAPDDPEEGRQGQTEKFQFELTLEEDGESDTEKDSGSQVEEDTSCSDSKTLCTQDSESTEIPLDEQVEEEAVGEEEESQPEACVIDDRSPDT
row,Structure (SMILES),EC50 [nM]
1,"CCOc1ncc(Cc2cnc(C#N)nc2)nc1-c1cccc(OC(F)F)c1 [Example 1, 5-({6-[3-(Difluoromethoxy)phenyl]-5-ethoxypyrazin-2-yl}methyl)pyrimidine-2-carbonitrile]",< 100
2,"COc1ncc(Cc2cnc(Cl)nc2)cc1-c1cccc(Cl)c1 [Example 2, 2-Chloro-5-{[5-(3-chlorophenyl)-6-methoxypyridin-3-yl]methyl}pyrimidine]",100 to 1000
3,"COc1ncc(Cc2cnc(NCCN(C)C)nc2)cc1-c1cccc(Cl)c1 [Example 3, {2-[(5-{[5-(3-Chlorophenyl)-6-methoxypyridin-3-yl]methyl}pyrimidin-2-yl)amino]ethyl}dimethylamine]",1000 to 10000
4,"COc1cccc(-c2cc(Cn3cncn3)cnc2OC)n1 [Example 4, 2-Methoxy-3-(6-methoxypyridin-2-yl)-5-(1H-1,2,4-triazol-1-ylmethyl)pyridine]",> 10000
5,"COc1ncc(Cn2cncn2)cc1-c1cccc(C)c1 [Example 5, 2-Methoxy-3-(3-methylphenyl)-5-(1H-1,2,4-triazol-1-ylmethyl)pyridine]",100 to 1000
6,"COc1ncc(Cn2cncn2)cc1-c1cncc(C)c1 [Example 6, 2-Methoxy-3-(5-methylpyridin-3-yl)-5-(1H-1,2,4-triazol-1-ylmethyl)pyridine]",> 10000
7,"COc1ncc(Cn2cncn2)cc1-c1ccnc(C)c1 [Example 7, 2-Methoxy-3-(2-methylpyridin-4-yl)-5-(1H-1,2,4-triazol-1-ylmethyl)pyridine]",100 to 1000
8,"COc1ncc(Cn2cncn2)cc1-c1cccc(CO)c1 [Example 8, {3-[2-Methoxy-5-(1H-1,2,4-triazol-1-ylmethyl)pyridin-3-yl]phenyl}methanol]",1000 to 10000
9,"COc1ncc(Cn2cncn2)cc1-c1cccc(S(C)(=O)=O)c1 [Example 9, 3-(3-Methanesulfonylphenyl)-2-methoxy-5-(1H-1,2,4-triazol-1-ylmethyl)pyridine]",> 10000
10,"COc1ncc(Cn2cncn2)cc1-c1cc(C)ccn1 [Example 10, 2-Methoxy-3-(4-methylpyridin-2-yl)-5-(1H-1,2,4-triazol-1-ylmethyl)pyridine]",> 10000
11,"COc1ncc(Cn2cncn2)cc1-c1cccc(C)n1 [Example 11, 2-Methoxy-3-(6-methylpyridin-2-yl)-5-(1H-1,2,4-triazol-1-ylmethyl)pyridine]",> 10000
12,"Cc1cccc(-c2cc(Cn3cncn3)cnc2OC(F)F)c1 [Example 12, 2-(Difluoromethoxy)-3-(3-methylphenyl)-5-(1H-1,2,4-triazol-1-ylmethyl)pyridine]",100 to 1000
13,"CCOc1ncc(Cc2cnc(C(N)=O)nc2)nc1-c1cccc(OC(F)F)c1 [Example 13, 5-({6-[3-(Difluoromethoxy)phenyl]-5-ethoxypyrazin-2-yl}methyl)pyrimidine-2-carboxamide]",< 100
14,"COc1ncc(C(O)c2ccc(F)cc2)cc1-c1cccc(Cl)c1 (stereo not shown) [Example 14, [5-(3-Chlorophenyl)-6-methoxypyridin-3-yl](4-fluorophenyl)methanol]",100 to 1000
15,"COc1ncc(C(C)(O)c2ccc(F)cc2)cc1-c1cccc(Cl)c1 (stereo not shown) [Example 15, 1-[5-(3-Chlorophenyl)-6-methoxypyridin-3-yl]-1-(4-fluorophenyl)ethan-1-ol]",1000 to 10000
16,"COc1ncc(C(O)c2ccc(F)cn2)cc1-c1cccc(Cl)c1 (stereo not shown) [Example 16, [5-(3-Chlorophenyl)-6-methoxypyridin-3-yl](5-fluoropyridin-2-yl)methanol]",1000 to 10000
17,"CNC(c1ccc(F)cc1)c1cnc(OC)c(-c2cccc(Cl)c2)c1 (stereo not shown) [Example 17, {[5-(3-Chlorophenyl)-6-methoxypyridin-3-yl](4-fluorophenyl)methyl}(methyl)amine]",1000 to 10000
18,"COc1ncc(C(N)c2ccc(F)cc2)cc1-c1cccc(Cl)c1 (stereo not shown) [Example 18, [5-(3-Chlorophenyl)-6-methoxypyridin-3-yl](4-fluorophenyl)methanamine]",1000 to 10000
19,"COc1ncc(C(c2ccc(F)cc2)N(C)C)cc1-c1cccc(Cl)c1 (stereo not shown) [Example 19, {[5-(3-Chlorophenyl)-6-methoxypyridin-3-yl](4-fluorophenyl)methyl}dimethylamine]",1000 to 10000
20,"COc1ncc(C(F)c2ccc(F)cc2)cc1-c1cccc(Cl)c1 (stereo not shown) [Example 20, 3-(3-Chlorophenyl)-5-[fluoro(4-fluorophenyl)methyl]-2-methoxypyridine]",100 to 1000
21,"COc1ncc(Cc2ccc(C(=O)O)cc2)cc1-c1cccc(Cl)c1 [Example 21, 4-{[5-(3-Chlorophenyl)-6-methoxypyridin-3-yl]methyl}benzoic acid]",100 to 1000
22,"COc1ncc(Cc2cnc(C#N)nc2)nc1-c1cccc(Cl)c1 [Example 22, 5-{[6-(3-Chlorophenyl)-5-methoxypyrazin-2-yl]methyl}pyrimidine-2-carbonitrile]",> 10000
23,"COc1ncc(Cc2cnc(C(=O)O)nc2)cc1-c1cccc(Cl)c1 [Example 23, 5-{[5-(3-Chlorophenyl)-6-methoxypyridin-3-yl]methyl}pyrimidine-2-carboxylic acid]",1000 to 10000

row,Structure (SMILES),EC50 [nM]
1,"COc1ncc(Cc2cnc(C(N)=O)nc2)cc1-c1cccc(Cl)c1 [Example 24, 5-{[5-(3-Chlorophenyl)-6-methoxypyridin-3-yl]methyl}pyrimidine-2-carboxamide]",100 to 1000
2,"COc1ncc(Cc2cnc(N)nc2)cc1-c1cccc(Cl)c1 [Example 25, 5-{[5-(3-Chlorophenyl)-6-methoxypyridin-3-yl]methyl}pyrimidin-2-amine]",< 100
3,"COc1ncc(Cc2ccc(NC(N)=O)cc2)cc1-c1cccc(Cl)c1 [Example 26, (4-{[5-(3-Chlorophenyl)-6-methoxypyridin-3-yl]methyl}phenyl)urea]",100 to 1000
4,"COc1ncc(Cc2ccc(C(N)=O)cc2)cc1-c1cccc(Cl)c1 [Example 27, 4-{[5-(3-Chlorophenyl)-6-methoxypyridin-3-yl]methyl}benzamide]",< 100
5,"FC(F)Oc1ncc(Cc2cn[nH]c2)cc1-c1cccc(Cl)c1 [Example 28, 5-((1H-Pyrazol-4-yl)methyl)-3-(3-chlorophenyl)-2-(difluoromethoxy)pyridine]",< 100
6,"COc1cccc(-c2cc(Cc3cnc(N)nc3)cnc2OC(F)F)c1 [Example 29, 5-{[6-(Difluoromethoxy)-5-(3-methoxyphenyl)pyridin-3-yl]methyl}pyrimidin-2-amine]",< 100
7,"COc1ncc(Cc2ccc(N)nc2)cc1-c1cccc(Cl)c1 [Example 30, 5-{[5-(3-Chlorophenyl)-6-methoxypyridin-3-yl]methyl}pyridin-2-amine]",< 100
8,"COc1ncc(Cc2ccc(NC(=O)NC3COC3)cc2)cc1-c1cccc(Cl)c1 [Example 31, 1-(4-{[5-(3-Chlorophenyl)-6-methoxypyridin-3-yl]methyl}phenyl)-3-(oxetan-3-yl)urea]",1000 to 10000
9,"COc1ccc(Cc2cnc(OC)c(-c3cccc(Cl)c3)c2)cn1 [Example 32, 3-(3-Chlorophenyl)-2-methoxy-5-[(6-methoxypyridin-3-yl)methyl]pyridine]",< 100
10,"Nc1ccc(Cc2cnc(OC(F)F)c(-c3cccc(Cl)c3)c2)cn1 [Example 33, 5-{[5-(3-Chlorophenyl)-6-(difluoromethoxy)pyridin-3-yl]methyl}pyridin-2-amine]",< 100
11,"COc1ncc(Cc2ccc(N(C)C)nc2)cc1-c1cccc(Cl)c1 [Example 34, 5-{[5-(3-Chlorophenyl)-6-methoxypyridin-3-yl]methyl}-N,N-dimethylpyridin-2-amine]",100 to 1000
12,"N#Cc1ncc(Cc2cnc(OC(F)F)c(-c3cccc(Cl)c3)c2)cn1 [Example 35, 5-{[5-(3-Chlorophenyl)-6-(difluoromethoxy)pyridin-3-yl]methyl}pyrimidine-2-carbonitrile]",1000 to 10000
13,"Nc1ncc(Cc2cnc(OC(F)F)c(-c3cccc(Cl)c3)c2)s1 [Example 36, 5-{[5-(3-Chlorophenyl)-6-(difluoromethoxy)pyridin-3-yl]methyl}-1,3-thiazol-2-amine]",< 100
14,"COc1ncc(Cc2ccccc2CO)cc1-c1cccc(Cl)c1 [Example 37, (2-{[5-(3-Chlorophenyl)-6-methoxypyridin-3-yl]methyl}phenyl)methanol]",100 to 1000
15,"COc1ncc(Cc2cnc(N)nc2)cc1-c1cccc(F)c1 [Example 38, 5-{[5-(3-Fluorophenyl)-6-methoxypyridin-3-yl]methyl}pyrimidin-2-amine]",< 100
16,"COc1ncc(Cc2cnc(C#N)nc2)cc1-c1cccc(F)c1 [Example 39, 5-{[5-(3-Fluorophenyl)-6-methoxypyridin-3-yl]methyl}pyrimidine-2-carbonitrile]",1000 to 10000
17,"CCOc1ncc(Cc2cnc(N)nc2)cc1-c1cccc(Cl)c1 [Example 40, 5-{[5-(3-Chlorophenyl)-6-ethoxypyridin-3-yl]methyl}pyrimidin-2-amine]",< 100
18,"CC(C)Oc1ncc(Cc2cnc(N)nc2)cc1-c1cccc(Cl)c1 [Example 41, 5-{[5-(3-Chlorophenyl)-6-(propan-2-yloxy)pyridin-3-yl]methyl}pyrimidin-2-amine]",100 to 1000
19,"CC(C)Oc1cccc(-c2cc(Cc3cnc(N)nc3)cnc2OC(F)F)c1 [Example 42, 5-{[6-(Difluoromethoxy)-5-[3-(propan-2-yloxy)phenyl]pyridin-3-yl]methyl}pyrimidin-2-amine]",1000 to 10000
20,"Nc1ncc(Cc2cnc(OC(F)F)c(-c3cccc(OC4COC4)c3)c2)cn1 [Example 43, 5-{[6-(Difluoromethoxy)-5-[3-(oxetan-3-yloxy)phenyl]pyridin-3-yl]methyl}pyrimidin-2-amine]",100 to 1000
21,"COc1ncc(Cc2cnc(NC(C)=O)nc2)cc1-c1cccc(Cl)c1 [Example 44, N-(5-[{5-(3-Chlorophenyl)-6-methoxypyridin-3-yl]methyl}pyrimidin-2-yl)acetamide]",100 to 1000
22,"CS(=O)(=O)c1ccc(Cc2cnc(OC(F)F)c(-c3cccc(Cl)c3)c2)cc1 [Example 45, 3-(3-Chlorophenyl)-2-(difluoromethoxy)-5-[(4-methanesulfonylphenyl)methyl]pyridine]",100 to 1000
23,"COc1cc(-c2cc(Cc3cnc(N)nc3)cnc2OC(F)F)ccn1 [Example 46, 5-{[6-(Difluoromethoxy)-5-(2-methoxypyridin-4-yl)pyridin-3-yl]methyl}pyrimidin-2-amine]",< 100

# — patent US9120770B2, “Substituted pyridine and pyrazine compounds as PDE4 inhibitors” (DART NEUROSCIENCE (CAYMAN) LTD., priority 2013, dated 2015)
